Test [1] has as its system Mycobacterium tuberculosis. Description: Antimycobacterial activity against Mycobacterium tuberculosis H37Rv transformed with pSMT1 luciferase reporter plasmid assessed as growth inhibition after 6 days by luminometry. The format is functional. As to conditions: for GI50: Mycobacterium tuberculosis, H37Rv, 144 h. Background: Reporter assays use an easily measured gene product as a stand-in for the process of interest.

Test [2] concerns Mycobacterium tuberculosis. Description: Antimicrobial activity against multi-drug resistant Mycobacterium tuberculosis LAM-1 strain clinical isolate assessed as critical concentration to induce 99% growth reduction at 10 to 20 ug/mL by BACTEC_MGIT_960-TB detection system. It counts as functional.
For test [3], the system named is Mycobacterium tuberculosis. Description: Antimicrobial activity against multi-drug resistant Mycobacterium tuberculosis LAM-1 strain clinical isolate assessed as growth reduction at 0.1 ug/mL by BACTEC_MGIT_960-TB detection system. It counts as functional, organism-based.
The subject of test [4] is Mycobacterium tuberculosis. The test can be described thus: Antimicrobial activity against multi-drug resistant Mycobacterium tuberculosis LAM-1 strain clinical isolate assessed as growth reduction by BACTEC_MGIT_960-TB detection system. The format is functional.

Converted amounts (≈) assume the structure as drawn. “And” between values parts separate entries of the source, which are not always exact repeats. Equal values may be shown once. The source made the active and inactive calls.

As a reminder, the GI50 is the concentration giving 50% growth inhibition. `CC(C)n1c(=O)c2c3c(cnc2n(C(C)C)c1=O)C(=O)C1=C(C3=O)C2CCC1CC2`: in test [1], the GI90 was found to be 2.32 µg/mL (≈ 5.69 µM), the GI99 turned out to be 4.89 µg/mL and the concentration for 50% growth inhibition (GI50) was 0.73 µg/mL (≈ 1.79 µM). The INH in test [2] is 10 µg/mL.
As for `CCCCCn1c(=O)c2c3c(cnc2n(CCCCC)c1=O)C(=O)C1=C(C3=O)C2CCC1C2` (stereo not drawn), in test [1], the GI90 worked out at 4.09 µg/mL (≈ 9.1 µM), the GI99 came to 9.54 µg/mL and the GI50 is 1.26 µg/mL (≈ 2.8 µM).
Regarding `CCCCCCCn1c(=O)c2c3c(cnc2n(CCCCCCC)c1=O)C(=O)C1=C(C3=O)C2CCC1CC2`, in test [1], the GI90 worked out at 3.78 µg/mL (≈ 7.27 µM), the GI99 is 6.89 µg/mL and the GI50 was found to be 1.32 µg/mL (≈ 2.54 µM). In test [2], the INH came to 10 µg/mL.
On to `CCCCCCn1c(=O)c2c3c(cnc2n(CCCCCC)c1=O)C(=O)C1=C(C3=O)C2CCC1CC2`, for which, in test [1], the GI90 was found to be 6.13 µg/mL (≈ 12.5 µM), the GI99 came out at 14.89 µg/mL and the GI50 was 1.36 µg/mL (≈ 2.77 µM).
In the case of `CCCCCCCn1c(=O)c2c3c(cnc2n(CCCCCCC)c1=O)C(=O)C1=C(C3=O)C2CCC1C2` (stereo not drawn), in test [1], the GI90 was 2.45 µg/mL (≈ 4.85 µM), the GI99 was found to be 5.57 µg/mL and the GI50 worked out at 0.63 µg/mL (≈ 1.25 µM). The INH in test [2] was found to be 10 µg/mL.
Take `CC(C)Cn1c(=O)c2c3c(cnc2n(CC(C)C)c1=O)C(=O)C1=C(C3=O)C2CCC1C2` (stereo not drawn): in test [1], the GI90 turned out to be 5.3 µg/mL (≈ 12.6 µM), the GI99 worked out at 11.01 µg/mL and the GI50 is 2.08 µg/mL (≈ 4.93 µM).
Take `CC(C)C1CCc2ncc3c(c2C1=O)C(=O)C1=C(C3=O)C2CCC1C2` (stereo not drawn): in test [1], the GI90 was 39.2 µg/mL (≈ 117 µM), the GI99 is more than 100 µg/mL and the 50% growth inhibitory concentration (GI50) worked out at 20.4 µg/mL (≈ 60.8 µM).
The matching figures for `CC(C)CCn1c(=O)c2c3c(cnc2n(CCC(C)C)c1=O)C(=O)C1=C(C3=O)C2CCC1C2` (stereo not drawn): 8.11 µg/mL (≈ 18 µM), 16.32 µg/mL and 2.41 µg/mL (≈ 5.36 µM).
For `CCCn1c(=O)c2c3c(cnc2n(CCC)c1=O)C(=O)C1=C(C3=O)C2CCC1CC2`, in test [1], the GI90 amounted to 5.98 µg/mL (≈ 14.7 µM), the GI99 amounted to 7.34 µg/mL and the GI50 was 2.59 µg/mL (≈ 6.36 µM).
For `CCCCCn1c(=O)c2c3c(cnc2n(CCCCC)c1=O)C(=O)C1=C(C3=O)C2CCC1CC2`, in test [1], the GI90 is 4.78 µg/mL (≈ 10.3 µM), the GI99 is 13.37 µg/mL and the GI50 is 1.49 µg/mL (≈ 3.21 µM).
Consider `Cn1c(=O)c2c3c(cnc2n(C)c1=O)C(=O)C1=C(C3=O)C2CCC1CC2`, for which, in test [1], the GI90 stood at 6.98 µg/mL (≈ 19.9 µM), the GI99 was determined as 15.43 µg/mL and the GI50 is 2.83 µg/mL (≈ 8.05 µM).
For the compound `NNC(=O)c1ccncc1` [ISONIAZID], in test [1], the GI99 was 0.04 µg/mL and 0.06 µg/mL; the GI50 stood at 0.01 µg/mL (≈ 0.0729 µM). In addition, the inhibition result in test [3] is “inactive”.
`Cn1c(=O)c2c3c(cnc2n(C)c1=O)C(=O)C1=C(C3=O)C2CCC1C2` (stereo not drawn): in test [1], the GI90 amounted to 5.87 µg/mL (≈ 17.4 µM), the GI99 worked out at 10.43 µg/mL and the GI50 was found to be 1.58 µg/mL (≈ 4.68 µM).
In general, MIC refers to the smallest concentration in the dilution series that meets the test's criterion for growth inhibition. For `CC(C)n1c(=O)c2c3c(cnc2n(C(C)C)c1=O)C(=O)C1=C(C3=O)C2CCC1C2` (stereo not drawn), in test [1], the GI90 turned out to be 1.5 µg/mL (≈ 3.81 µM), the GI99 turned out to be 3 µg/mL and the GI50 stood at 0.52 µg/mL (≈ 1.32 µM). Also, the minimum inhibitory concentration (MIC) in test [4] came to 5 µg/mL (≈ 12.7 µM). The INH in test [2] is 5 µg/mL.
With `CC(C)C1CCC(=O)c2c1ncc1c2C(=O)C2=C(C1=O)C1CCC2C1` (stereo not drawn), in test [1], the GI99 was 24.66 µg/mL and 48.06 µg/mL; the GI50 stood at 5.55 µg/mL (≈ 16.5 µM).
`CCCCn1c(=O)c2c3c(cnc2n(CCCC)c1=O)C(=O)C1=C(C3=O)C2CCC1C2` (stereo not drawn): in test [1], the GI90 was determined as 4.59 µg/mL (≈ 10.9 µM), the GI99 is 7.23 µg/mL and the GI50 stood at 1.46 µg/mL (≈ 3.46 µM).
The corresponding values for `CCn1c(=O)c2c3c(cnc2n(CC)c1=O)C(=O)C1=C(C3=O)C2CCC1C2` (stereo not drawn) are 5.32 µg/mL (≈ 14.6 µM), 9.21 µg/mL and 1.69 µg/mL (≈ 4.63 µM).
As to `CCCCn1c(=O)c2c3c(cnc2n(CCCC)c1=O)C(=O)C1=C(C3=O)C2CCC1CC2`, in test [1], the GI90 was 5.2 µg/mL (≈ 11.9 µM), the GI99 worked out at 9.6 µg/mL and the GI50 came out at 1.84 µg/mL (≈ 4.22 µM).
The corresponding values for `CC(C)CCn1c(=O)c2c3c(cnc2n(CCC(C)C)c1=O)C(=O)C1=C(C3=O)C2CCC1CC2` are 10.33 µg/mL (≈ 22.3 µM), 22.88 µg/mL and 4.9 µg/mL (≈ 10.6 µM).
The corresponding values for `CCn1c(=O)c2c3c(cnc2n(CC)c1=O)C(=O)C1=C(C3=O)C2CCC1CC2` are 4.33 µg/mL (≈ 11.4 µM), 12.06 µg/mL and 2.55 µg/mL (≈ 6.72 µM).
The matching figures for `CC(C)Cn1c(=O)c2c3c(cnc2n(CC(C)C)c1=O)C(=O)C1=C(C3=O)C2CCC1CC2`: 9.31 µg/mL (≈ 21.4 µM), 12.28 µg/mL and 4.36 µg/mL (≈ 10 µM).
On to `CCCCCCn1c(=O)c2c3c(cnc2n(CCCCCC)c1=O)C(=O)C1=C(C3=O)C2CCC1C2` (stereo not drawn), for which, in test [1], the GI90 came out at 5.43 µg/mL (≈ 11.4 µM), the GI99 was determined as 11.6 µg/mL and the GI50 was found to be 1.22 µg/mL (≈ 2.55 µM).
The matching figures for `CCCn1c(=O)c2c3c(cnc2n(CCC)c1=O)C(=O)C1=C(C3=O)C2CCC1C2` (stereo not drawn): 4.28 µg/mL (≈ 10.9 µM), 6.23 µg/mL and 1.73 µg/mL (≈ 4.4 µM).

These data come from ChEMBL document CHEMBL3352001, “2,4-Dialkyl-8,9,10,11-tetrahydrobenzo[g]pyrimido[4,5-c]isoquinoline-1,3,7,12(2H,4H)-tetraones as new leads against Mycobacterium tuberculosis” (Eur J Med Chem, 2014).
